Test results reported in PubChem BioAssay (NCI).
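Assay format: 96-well plates, 48-hour exposure. Definition used: TGI = concentration required for complete inhibition of growth.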

Legend:
Test in all cases: inhibition of tumour cell growth, NCI panel, 48 h
786-0 renal = test system: 786-0 renal
A498 renal = test system: A498 renal
A549 NSCLC = test system: A549 NSCLC
ACHN renal = test system: ACHN renal
BT-549 breast = test system: BT-549 breast
CAKI-1 renal = test system: CAKI-1 renal
CCRF-CEM leukemia = test system: CCRF-CEM leukemia
COLO 205 colon = test system: COLO 205 colon
DU-145 prostate = test system: DU-145 prostate
EKVX NSCLC = test system: EKVX NSCLC
HCC-2998 colon = test system: HCC-2998 colon
HCT-116 colon = test system: HCT-116 colon
HCT-15 colon = test system: HCT-15 colon
HOP-62 NSCLC = test system: HOP-62 NSCLC
HOP-92 NSCLC = test system: HOP-92 NSCLC
HS 578T breast = test system: HS 578T breast
HT29 colon = test system: HT29 colon
IGROV1 ovarian = test system: IGROV1 ovarian
K-562 leukemia = test system: K-562 leukemia
KM12 colon = test system: KM12 colon
M14 melanoma = test system: M14 melanoma
MALME-3M melanoma = test system: MALME-3M melanoma
MCF7 breast = test system: MCF7 breast
MDA-MB-231 breast = test system: MDA-MB-231 breast
MDA-MB-435 = test system: MDA-MB-435
MDA-N = test system: MDA-N
MOLT-4 leukemia = test system: MOLT-4 leukemia
NCI-H23 lung = test system: NCI-H23 lung
NCI-H460 lung = test system: NCI-H460 lung
NCI-H522 lung = test system: NCI-H522 lung
NCI/ADR-RES ovarian = test system: NCI/ADR-RES ovarian
OVCAR-3 ovarian = test system: OVCAR-3 ovarian
OVCAR-4 ovarian = test system: OVCAR-4 ovarian
OVCAR-5 ovarian = test system: OVCAR-5 ovarian
OVCAR-8 ovarian = test system: OVCAR-8 ovarian
PC-3 prostate = test system: PC-3 prostate
RXF 393 renal = test system: RXF 393 renal
SF-268 CNS = test system: SF-268 CNS
SF-295 CNS = test system: SF-295 CNS
SF-539 CNS = test system: SF-539 CNS
SK-MEL-28 melanoma = test system: SK-MEL-28 melanoma
SK-MEL-5 melanoma = test system: SK-MEL-5 melanoma
SK-OV-3 ovarian = test system: SK-OV-3 ovarian
SN12C renal = test system: SN12C renal
SNB-19 CNS = test system: SNB-19 CNS
SNB-75 CNS = test system: SNB-75 CNS
SR leukemia = test system: SR leukemia
SW-620 colon = test system: SW-620 colon
T-47D breast = test system: T-47D breast
TK-10 renal = test system: TK-10 renal
U251 CNS = test system: U251 CNS
UACC-257 melanoma = test system: UACC-257 melanoma
UACC-62 melanoma = test system: UACC-62 melanoma
UO-31 renal = test system: UO-31 renal
LOX IMVI melanoma = test system: LOX IMVI melanoma
NCI-H226 lung = test system: NCI-H226 lung
RPMI-8226 leukemia = test system: RPMI-8226 leukemia
SK-MEL-2 melanoma = test system: SK-MEL-2 melanoma
HL-60(TB) leukemia = test system: HL-60(TB) leukemia

Measured: TGI

c1csc(-c2cc(-c3ccsc3)c(-c3ccsc3)s2)c1
90.8 µM: EKVX NSCLC
54.2 µM: T-47D breast
not listed: LOX IMVI melanoma | NCI-H226 lung | RPMI-8226 leukemia | SK-MEL-2 melanoma | HL-60(TB) leukemia
> 100 µM: all other assays above

NNC1=Nc2ccc(Cl)cc2C(=S)N2CSCC12 (centres undefined)
not listed: HOP-92 NSCLC | NCI-H23 lung | SF-539 CNS | HL-60(TB) leukemia
> 100 µM: all other assays above

COC(=O)C12C3C4(C(=O)OC)C1C1(C(=O)OC)C2C3(C(=O)OC)C41C(=O)N(C(C)C)C(C)C (centres undefined)
not listed: MALME-3M melanoma | SK-OV-3 ovarian | NCI-H226 lung | RPMI-8226 leukemia
> 100 µM: all other assays above
